A short description of the series: Human HepG2 cell viability assay in 384 well format. As to conditions: HepG2 cells, read-out: Inhibition. The class given is toxicity, cell-based. More on the design: dose 125 nL, time 70.5 hour; cytotoxicity at 70.5 h: concentration not given beside the values.
Consider `CCn1ccnc1CN1CCN(C(C)C(=O)NC2CCCC2)CC1` (stereo not drawn), for which the cytotoxicity at 70.5 h is -4.1%.
Then `CN(C(=O)NCc1ccsc1)C1CCN(c2ccccc2)C1=O` (stereo not drawn), with 0.0689%; and `CCc1nnc(NC(=O)Cc2c(C)nc(C)[nH]c2=O)s1`, with 13.4%; and `Cc1nc(C)c(CC(=O)Nc2nnc(C3CC3)s2)c(=O)[nH]1`, with -7.66%.
Then `Cc1occc1C(=O)NCc1cccnc1N(C)C`, with -14.4%; and `COc1ncccc1CNC(=O)c1c(C)oc(C)c1C`, with -8.16%; and `Cc1noc(C)c1C(=O)NCc1cccnc1N(C)C`, with -9.96%.
For `CC(C)(C)NC(=O)CCOc1cccc(F)c1`, the cytotoxicity at 70.5 h is -5.57%.
Then `Cc1nc(C)c(CC(=O)Nc2nnc(C(C)C)s2)c(=O)[nH]1`, with -5.16%; and `N#Cc1cn(C2CC2)c(=O)n(CC(O)c2ccc(F)cc2)c1=O` (stereo not drawn), with -16.6%.
The figure for `Cc1noc2ncc(C(=O)NCC3CCCO3)cc12` (stereo not drawn) is -7.11%.
The figure for `Cc1cc(NC(=O)NCC(O)c2ccc(F)cc2)n(C)n1` (stereo not drawn) is -12.7%; for `Cc1noc2ncc(C(=O)NCC3CCS(=O)(=O)C3)cc12` (stereo not drawn) it is -7.14%; for `CCN(CC1CCOC1)C(=O)c1cnc2onc(C)c2c1` (stereo not drawn) it is -8.61%.
Take `Cc1nc(C)c(CC(=O)Nc2nc(C)c(C)s2)c(=O)[nH]1`: the cytotoxicity at 70.5 h was -17.1%.
The figure for `CC(Cn1ccnc1)NC(=O)NCCc1cccs1` (stereo not drawn) is -11.6%.
As for `CC(Cn1ccnc1)NC(=O)NCCc1cccnc1` (stereo not drawn), the cytotoxicity at 70.5 h is -2.45%.
The figure for `O=C(COCC1CC1)Nc1ncn(CC(=O)N2CCCCCC2)n1` is -3.31%; for `CC(C)(CNC(=O)CCCOc1cccc(F)c1)C(N)=O` it is -14.4%; for `c1cncc(-c2noc(CN3CCc4cncnc4C3)n2)c1` it is -12.6%.
The figure for `COc1ccc(-c2nc(CN3CCc4cncnc4C3)no2)cc1` is -3.32%; for `O=C(Nc1ncn(CC(=O)N2CCCCCC2)n1)C1CCCC1` it is -7.56%.
On to `COCCS(=O)(=O)Nc1ccc(-n2cncn2)c(F)c1`, for which the cytotoxicity at 70.5 h was -8.99%.
The figure for `Cc1ccc(-c2noc(CN3CCc4cncnc4C3)n2)cc1` is 11.6%.
Then `CCCc1noc(CN2CCCCC2Cn2cncn2)n1` (stereo not drawn), with -7.74%; and `COc1ccc(COCC(=O)N2CCN(CC(C)(C)O)CC2)cc1`, with -0.338%.
With `COc1cccc(COCC(=O)N2CCCN(CC(N)=O)CC2)c1`, the cytotoxicity at 70.5 h is -9.55%.
As for `CCN1CCN(C(=O)COCc2cccc(OC)c2)CC1`, the cytotoxicity at 70.5 h is -6.27%.
Regarding `Cc1ccc(CNC(=O)Cn2nc(-c3ccc(F)cc3)oc2=O)cc1F`, the cytotoxicity at 70.5 h is -7.42%.
Then `O=C(Cn1nc(-c2ccc(F)cc2)oc1=O)NCc1ccccc1F`, with -5.95%.
Then `COc1cccc(COCC(=O)N2CCN(S(C)(=O)=O)CC2)c1`, with -4.61%.
The figure for `Cc1ccsc1C(=O)NCc1ccnc(OCC(F)(F)F)c1` is -5.25%; for `Cc1ccoc1C(=O)NCc1ccnc(OCC(F)(F)F)c1` it is -3.36%.
Turning to `Cc1cc(C(=O)NCc2ccnc(OCC(F)(F)F)c2)no1`, the cytotoxicity at 70.5 h was -9.23%.
Then `Cc1ccc(C(=O)N2CCC(Oc3ccccc3)CC2)c(=O)[nH]1`, with 10.3%; and `CC(O)CN1CCN(Cc2csc(-c3cnn(C)c3)n2)CC1` (stereo not drawn), with -9.86%.
Then `CC(C)c1nnc2n1CCN(CC(=O)N1CCc3sccc3C1)C2`, with -6.79%; and `Cc1ccc(O)c(CNCC2CCCN2c2cccnn2)n1` (stereo not drawn), with -11.5%.
On to `Cc1cc(CN2CCN(C(=O)NC(C)Cn3ccnc3)CC2)on1` (stereo not drawn), for which the cytotoxicity at 70.5 h is 29.6%.
The figure for `N#Cc1cccnc1N1CCC(C2CCCCCN2C(=O)C2CC2)CC1` (stereo not drawn) is 5.51%.
As for `CC(C)c1noc(CCCC(=O)NC(C)c2ccccn2)n1` (stereo not drawn), the cytotoxicity at 70.5 h is -9.67%.
The figure for `COc1cc(C(=O)Nc2cn[nH]c2)ccc1C` is -7%.
The figure for `CC(C)c1nnc2n1CCN(C(=O)c1ccc(Cn3cccc3)cc1)C2` is -7.11%; for `Cc1cc(NC(=O)CCN2CCn3c(C)nnc3C2)no1` it is -8.82%; for `Cc1cc(C)n(C2CCCN(C(=O)c3ccn(C)c(=O)c3)C2)n1` (stereo not drawn) it is -9.18%.
The figure for `CCc1nc(C2CCCN2Cc2noc(Cc3ccccc3)n2)no1` (stereo not drawn) is -7.3%.
As to `CN(Cc1nc2ccccc2o1)CC1CCCN1c1cccnn1` (stereo not drawn), the cytotoxicity at 70.5 h worked out at 7.03%.
Then `Cc1noc(C2CCCN(C(=O)c3cc(Cl)ccc3F)C2)n1` (stereo not drawn), with -7.27%.
The figure for `CCc1nc(C2CCCN2Cc2nnc(CC)o2)no1` (stereo not drawn) is -9.92%; for `CCc1nc(CN2CCOC(CN(CC)c3cccnn3)C2)cs1` (stereo not drawn) it is -12.8%.
The figure for `CN(Cc1ccsc1)C(=O)CN1CCCCC1Cn1cccn1` (stereo not drawn) is -10%.
Turning to `CN(Cc1nc2ccccc2n1C)CC1CCCN1c1cccnn1` (stereo not drawn), the cytotoxicity at 70.5 h is -11.1%.
The figure for `Cc1nc(CN(C)CC2CCCN2c2cccnn2)nc2ccccc12` (stereo not drawn) is -5.19%.
The figure for `Cc1noc(CN2CCN(C(=O)c3ccccn3)CC2)n1` is -8.75%; for `O=c1n(CCSCc2ccccc2Br)nc2ccccn12` it is 4.82%.
Take `CSC(C)C(=O)NCc1ccc(-n2cncn2)nc1` (stereo not drawn): the cytotoxicity at 70.5 h is -10.2%.
The figure for `CCc1nnsc1C(=O)N1CCCN(Cc2ccccc2)CC1` is -8.56%; for `CC(=O)Nc1nc(C(=O)NC(C)c2ccncc2)cs1` (stereo not drawn) it is 5.86%; for `CC(C)COC(C)C(=O)NCc1ccc(-n2cncn2)nc1` (stereo not drawn) it is 3.66%.
Regarding `CC(C(=O)NCc1ccc(-n2cncn2)nc1)S(C)(=O)=O` (stereo not drawn), the cytotoxicity at 70.5 h worked out at 0.438%.
Then `CNC(=O)NC(=O)CN(CC(C)O)c1ccccc1` (stereo not drawn), with -3.36%; and `Cc1cc(CN(C)C(=O)NC2CCC(O)CC2)no1` (stereo not drawn), with -7.4%; and `O=C(Cc1ccc2c(c1)CCC2)N1CCCC(n2cccn2)C1` (stereo not drawn), with -6.54%.
For the compound `N#Cc1ccc(CC(=O)N2CCCC(n3cccn3)C2)cc1` (stereo not drawn), the cytotoxicity at 70.5 h was -5.65%.
Then `CCOc1ccccc1CSCCn1nc2ccccn2c1=O`, with -10.1%.
Then `Cc1cc(CN(C)C(=O)NC2CCCC2)no1`, with -7.06%; and `COc1cccc(-c2nc(CNC(C)Cn3cccn3)cs2)c1` (stereo not drawn), with 12.8%; and `CCc1nc(CN2CCCN(C(=O)C3CCOCC3)CC2)cs1`, with 18.1%.
Then `CCc1nc(CN2CCCN(C(=O)C3CCOC3)CC2)cs1` (stereo not drawn), with 7.45%; and `COc1ccc(C(=O)N(C)Cc2cc(C)on2)c(F)c1`, with -10.6%; and `COc1cccc(-c2nc(CNCCCn3cccn3)cs2)c1`, with -3.21%.
Take `COc1ccc(-c2nc(CNCCn3cccn3)cs2)cc1`: the cytotoxicity at 70.5 h is -5.1%.
Then `Cc1nc(CN2CCCN(C(=O)c3c(C)noc3C)CC2)cs1`, with -5.02%.
In the case of `Cc1cc(CN(C)C(=O)c2ccc(F)cc2F)no1`, the cytotoxicity at 70.5 h is -7.99%.
The figure for `CCc1nc(CN2CCCN(C(=O)c3cncnc3C)CC2)cs1` is -7.12%.
The figure for `Cc1cc(NC(=O)C(C)N2CCN(c3nccs3)CC2)on1` (stereo not drawn) is -3.21%.
Then `Cc1n[nH]c(=O)c2c(NC(=O)CN3CCOCC3C)oc(C)c12` (stereo not drawn), with 4.42%.
On to `Cc1n[nH]c(=O)c2c(NC(=O)CN3CCOCC3)oc(C)c12`, for which the cytotoxicity at 70.5 h was -8.38%.
Then `Cc1nc(CN2CCN(C(=O)c3c(C)noc3C)CC2)cs1`, with -3.65%; and `CN(Cc1nc2c(cnn2C)c(=O)[nH]1)Cc1ccccc1Cl`, with -4.36%; and `Cc1ccc(CN(C)Cc2nc3c(cnn3C)c(=O)[nH]2)c(C)c1`, with 7.52%.
The figure for `COc1cccc(CN(C)Cc2nc3c(cnn3C)c(=O)[nH]2)c1OC` is -5.01%.
Then `COc1ccccc1CCNC(=O)N1CCCC(c2nncn2C)C1` (stereo not drawn), with -1.17%.
Consider `CC1CN(CC2CCCC2)CCN1c1ccc2nncn2n1` (stereo not drawn), for which the cytotoxicity at 70.5 h was determined as 4.49%.
As for `CN(Cc1ncc(-c2ccccc2)o1)C1CCCN(c2cccnn2)C1` (stereo not drawn), the cytotoxicity at 70.5 h was 2.02%.
The figure for `O=C(CN1CCN(c2ccc3nncn3n2)CC1)NC1CCCC1` is 1.25%; for `CCc1nc(CN2CCCN(C(=O)CC3CCCC3)CC2)cs1` it is 4.58%.
The figure for `O=C(CCSc1ccccc1F)NS(=O)(=O)c1ccc2c(c1)OCCO2` is -4.85%; for `O=C(CCc1ccc(F)cc1)NS(=O)(=O)c1ccc2c(c1)OCCO2` it is -4.67%.
Then `O=C(O)c1csc(S(=O)(=O)Nc2cccc(OCC(F)(F)F)c2)c1`, with -3.57%.
Consider `Cc1nc(CN2CCCC(NCc3ccsc3)C2)no1` (stereo not drawn), for which the cytotoxicity at 70.5 h was 1.36%.
Then `Cc1cnn(CC2CN(Cc3cccc(C(=O)N(C)C)c3)CCO2)c1` (stereo not drawn), with 3.78%; and `CC(=O)N1CCN(Cn2nc(-c3ccc(F)cc3)oc2=O)CC1`, with -8.85%.
The figure for `Fc1cccc(Oc2ccc(CNCC3CNc4ccnn4C3)cn2)c1` (stereo not drawn) is 0.403%.
The figure for `CCC(C)(C)NC(=O)Cn1nc(C)nc1-c1cccc(C)c1` is -3.94%.
Consider `O=C(O)c1csc(S(=O)(=O)Nc2cccc(OC(F)F)c2)c1`, for which the cytotoxicity at 70.5 h is -12.7%.
The figure for `c1cc(-c2nc(CN3CCn4c(nnc4C4CC4)C3)cs2)cs1` is -25.2%.
The figure for `CC(C)(C)c1cn2nc(N3CCC[C@@H]3CO)sc2n1` is -17.4%; for `CCc1nc(CN2CCN(C(=O)Cc3c(C)noc3C)CC2)cs1` it is -10.4%; for `CC(c1nc(C2CC2)no1)N1CCN(Cc2cccc(C#N)c2)CC1` (stereo not drawn) it is -2.01%.
The figure for `c1cnn(CCNCc2csc(-c3ccsc3)n2)c1` is 10.6%; for `Cc1cc(NC(=O)C(C)N2CCCN(c3nccs3)CC2)on1` (stereo not drawn) it is -15.9%.
`Cc1nn(C)c(N(C)C)c1CNCCOc1ccc2c(c1)OCO2`: the cytotoxicity at 70.5 h was -4.86%.

For the origin of these results see ChEMBL document CHEMBL3507680, “University of Dundee, Gates Library screen for HepG2 cell viability”.
